pKi: −log10 of the molar value. Entries after “also recorded” stand apart in the source; their conditions may differ.
Tests used:
H2 = H2 (Homo sapiens, UniProt P25021); test: Affinity to brain targets (panel); type: binding; details: H2: histamine
5-HT1E = 5-HT1E (Homo sapiens, UniProt P28566); test: Affinity to brain targets (panel); type: binding
variety of brain targets = test: Affinity for a variety of brain targets; type: binding; details: variety of brain targets (Table 1), except H4R
GABA = test: Affinity to brain targets (panel); type: binding
α2C = α2C (Homo sapiens, UniProt P18825); test: Affinity to brain targets (panel); type: binding
M = test: Affinity to brain targets (panel); type: binding; details: M: muscarinic
BZP = test: Affinity to brain targets (panel); type: binding; details: BZP: benzodiazepine
5-HT3 = 5-HT3 (Homo sapiens, UniProt P46098); test: Affinity to brain targets (panel); type: binding
5-HT2C = 5-HT2C (Homo sapiens, UniProt P28335); test: Affinity to brain targets (panel); type: binding
NMDA = test: Affinity to brain targets (panel); type: binding
Ca++ channel = test: Affinity to brain targets (panel); type: binding
β3 = β3 (Homo sapiens, UniProt P13945); test: Affinity to brain targets (panel); type: binding
α2A = α2A (Homo sapiens, UniProt P08913); test: Affinity to brain targets (panel); type: binding
Sigma1 = Sigma1 (Homo sapiens, UniProt Q99720); test: Affinity to brain targets (panel); type: binding
5-HT1A = 5-HT1A (Homo sapiens, UniProt P08908); test: Affinity to brain targets (panel); type: binding
CB2 = CB2 (Homo sapiens, UniProt P34972); test: Affinity to brain targets (panel); type: binding; details: CB2: cannabinoid
AMPA = test: Affinity to brain targets (panel); type: binding
D4 = D4 (Homo sapiens, UniProt P21917); test: Affinity to brain targets (panel); type: binding; details: D4: dopamine
β1 = β1 (Homo sapiens, UniProt P08588); test: Affinity to brain targets (panel); type: binding
α1A-1C = test: Affinity to brain targets (panel); type: binding
D1, D2 = test: Affinity to brain targets (panel); type: binding; details: D1, D2: dopamine
VMAT = test: Affinity to brain targets (panel); type: binding; details: VMAT (VMAT 1,2): vesicular monoamine transporter
Adenosine = test: Affinity to brain targets (panel); type: binding; details: Adenosine (A)
panel of kinases = details: cited from earlier work
I = test: Affinity to brain targets (panel); type: binding
5-HT7 = 5-HT7 (Homo sapiens, UniProt P34969); test: Affinity to brain targets (panel); type: binding
PKC = test: Affinity to brain targets (panel); type: binding; details: PKC: Protein kinase C
microtubules (MTs) = details: reference 9; cited from earlier work
5-HT1B = 5-HT1B (Homo sapiens, UniProt P28222); test: Affinity to brain targets (panel); type: binding
mGluR = test: Affinity to brain targets (panel); type: binding; details: mGluR (mGluRs): metabotropic glutamate receptors
V1-2 = test: Affinity to brain targets (panel); type: binding; details: V1-2: vasopressin
β2 = β2 (Homo sapiens, UniProt P07550); test: Affinity to brain targets (panel); type: binding
α2B = α2B (Homo sapiens, UniProt P18089); test: Affinity to brain targets (panel); type: binding
KA = test: Affinity to brain targets (panel); type: binding; details: KA (KAR): Kainate
NK = test: Affinity to brain targets (panel); type: binding; details: NK: neurokinin
D5 = D5 (Homo sapiens, UniProt P21918); test: Affinity to brain targets (panel); type: binding; details: D5: dopamine
H3, H4 = test: Affinity to brain targets (panel); type: binding; details: H3, H4: histamine
Na+ Channel = test: Affinity to brain targets (panel); type: binding
EP = test: Affinity to brain targets (panel); type: binding; details: EP: prostanoid receptors
D3 = D3 (Homo sapiens, UniProt P35462); test: Affinity to brain targets (panel); type: binding; details: D3: dopamine
CB1 = CB1 (Homo sapiens, UniProt P21554); test: Affinity to brain targets (panel); type: binding; details: CB1: cannabinoid
5-HT2A = 5-HT2A (Homo sapiens, UniProt P28223); test: Affinity to brain targets (panel); type: binding
5-HT1D = 5-HT1D (Homo sapiens, UniProt P28221); test: Affinity to brain targets (panel); type: binding
MOR = MOR (Homo sapiens, UniProt P35372); test: Affinity to brain targets (panel); type: binding; details: MOR: mu opioid receptor
5-HT2B = 5-HT2B (Homo sapiens, UniProt P41595); test: Affinity to brain targets (panel); type: binding
NT = test: Affinity to brain targets (panel); type: binding; details: NT: neurotrophin
brain MT [1] = test: Biodistribution in white male mice; type: in vivo
Protocol: (§1) Biodistribution of [^11C] […] The time-activity curves were expressed in g/mL normalized to the injected dose corrected for weight, to obtain standardized uptake values (SUVs). The brain SUV of [^11C] […] The heart, blood and muscles also show binding to [^11C] MPC-6827 and are consistent with known distribution of MTs in these organs. […] The lungs show higher uptake up to 30 minutes, followed by washout. 70% specific binding in brain was established at 30 minutes prior to the injection of radiotracer with 5 mg/kg MPC-6827 (FIG. 2) in mice.

[2] = Stability in 5% ethanol-saline formulation; type: physicochemical
Protocol: (§2) The radiochemical synthesis of [^11C] MPC-6827 was optimized and automated on aGE-FX2MeI/FX2M radiochemistry module by alkylating the desmethyl-MPC6827 precursor (6) with [^11C] MeI in DMF using NaOH. [^11C] MPC-6827 was produced with a radiochemical yield (RCY) of 40%, in >99% radiochemical purity and a specific activity of 2+0.5 Ci/μmol (decay corrected to end of synthesis (EOS)). The radioligand was stable in 5% ethanol-saline formulation for 4 h and the log Poct/wat was estimated as 3.8 by shake flask method.

rat brain = test: MicroPET in rat; type: in vivo
[3] = test system: glioblastoma (GBM) U251 cells; test: In vitro cell uptake; type: cell-based
glioblastoma PDX cells = test: In vitro cell uptake; type: cell-based
MDA-MB-231 cells = test: Cell uptake and blocking; type: cell-based
[4] = test system: amyloid overexpressing 5×FAD-AD mice; test: MicroPET in AD animal model 5×FAD; type: in vivo; details: 15 month-old
Description: In vivo imaging of [^11C]MPC-6827 in amyloid overexpressing 5×FAD-AD mice (15 month-old) show 40% lower binding of radiotracer in the whole brain model in comparison to the wild type controls (FIGS. 10 and 11). The tracer binding in frontal and mid brain regions show significant lower binding than whole brain in comparison to wild type mice.

[5] = log Poct/wat by shake flask method; type: physicochemical; details: octanol/water
Protocol: as §2

[6] = test system: tau-overexpressing rTg4510 mice; test: MicroPET in AD animal model rTg4510; type: in vivo; details: 9-month old
Description: MicroPET studies with 9-month old, tau-overexpressing rTg4510 mice (Alzheimer disease-tau pathology) show ˜35% lower binding of [^11C]MPC-6827 brain activity in comparison to the control mice (FIGS. 12 and 13).

[7] = test system: prostate cancer (PC3) cells; test: In vitro cell uptake; type: cell-based
brain MT [8] = test: MicroPET in athymic nude male mice; type: in vivo
Protocol: as §1
Radioligand binding in thyroid gland, is also displaced during the blocking experiments.^21-23

Sequence of 5-HT1E (P28566 whole entry, species assumed): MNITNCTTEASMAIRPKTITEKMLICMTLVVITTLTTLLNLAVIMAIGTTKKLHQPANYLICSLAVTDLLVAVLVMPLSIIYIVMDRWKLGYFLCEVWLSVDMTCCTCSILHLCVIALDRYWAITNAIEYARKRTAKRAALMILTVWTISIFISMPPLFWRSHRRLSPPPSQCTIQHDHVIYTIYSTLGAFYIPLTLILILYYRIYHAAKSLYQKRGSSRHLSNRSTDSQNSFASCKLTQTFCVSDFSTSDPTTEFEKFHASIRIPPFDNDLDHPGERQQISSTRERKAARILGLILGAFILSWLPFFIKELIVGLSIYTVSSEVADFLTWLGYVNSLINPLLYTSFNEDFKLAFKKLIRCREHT
Sequence of 5-HT2B (P41595 whole entry, species assumed): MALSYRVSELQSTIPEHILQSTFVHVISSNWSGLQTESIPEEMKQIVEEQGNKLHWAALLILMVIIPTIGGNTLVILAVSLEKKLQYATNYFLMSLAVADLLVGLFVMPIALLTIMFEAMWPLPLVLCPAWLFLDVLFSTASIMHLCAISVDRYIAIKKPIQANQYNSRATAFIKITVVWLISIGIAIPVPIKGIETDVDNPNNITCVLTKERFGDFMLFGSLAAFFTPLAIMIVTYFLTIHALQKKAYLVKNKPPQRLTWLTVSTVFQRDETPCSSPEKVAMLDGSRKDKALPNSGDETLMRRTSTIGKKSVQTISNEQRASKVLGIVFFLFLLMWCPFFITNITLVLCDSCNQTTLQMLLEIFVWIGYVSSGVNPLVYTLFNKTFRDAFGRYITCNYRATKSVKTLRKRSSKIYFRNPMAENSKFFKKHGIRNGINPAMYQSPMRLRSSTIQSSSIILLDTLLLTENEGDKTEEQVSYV
Sequence of CB1 (P21554 whole entry, species assumed): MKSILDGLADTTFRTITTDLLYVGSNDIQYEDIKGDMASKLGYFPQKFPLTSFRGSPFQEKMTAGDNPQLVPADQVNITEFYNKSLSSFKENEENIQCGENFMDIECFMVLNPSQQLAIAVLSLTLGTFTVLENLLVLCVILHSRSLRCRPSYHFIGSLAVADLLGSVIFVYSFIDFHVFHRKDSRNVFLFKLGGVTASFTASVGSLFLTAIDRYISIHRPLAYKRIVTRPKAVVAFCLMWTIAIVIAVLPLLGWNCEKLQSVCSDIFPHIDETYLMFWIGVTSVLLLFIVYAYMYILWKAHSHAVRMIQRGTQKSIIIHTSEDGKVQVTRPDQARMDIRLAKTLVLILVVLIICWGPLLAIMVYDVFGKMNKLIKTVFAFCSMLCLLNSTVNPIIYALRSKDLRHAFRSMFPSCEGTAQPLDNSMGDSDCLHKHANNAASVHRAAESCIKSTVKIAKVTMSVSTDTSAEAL
Sequence of 5-HT1B (P28222 whole entry, species assumed): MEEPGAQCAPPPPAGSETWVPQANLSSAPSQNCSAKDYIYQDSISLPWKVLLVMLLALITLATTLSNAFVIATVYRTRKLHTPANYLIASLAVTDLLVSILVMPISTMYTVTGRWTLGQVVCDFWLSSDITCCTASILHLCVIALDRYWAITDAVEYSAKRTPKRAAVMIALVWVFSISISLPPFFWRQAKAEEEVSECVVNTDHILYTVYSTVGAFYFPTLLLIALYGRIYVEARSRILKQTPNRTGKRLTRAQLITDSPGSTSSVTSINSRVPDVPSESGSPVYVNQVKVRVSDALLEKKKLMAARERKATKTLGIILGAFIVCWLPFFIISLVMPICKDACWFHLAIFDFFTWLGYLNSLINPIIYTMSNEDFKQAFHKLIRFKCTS
Sequence of α2C (P18825 whole entry): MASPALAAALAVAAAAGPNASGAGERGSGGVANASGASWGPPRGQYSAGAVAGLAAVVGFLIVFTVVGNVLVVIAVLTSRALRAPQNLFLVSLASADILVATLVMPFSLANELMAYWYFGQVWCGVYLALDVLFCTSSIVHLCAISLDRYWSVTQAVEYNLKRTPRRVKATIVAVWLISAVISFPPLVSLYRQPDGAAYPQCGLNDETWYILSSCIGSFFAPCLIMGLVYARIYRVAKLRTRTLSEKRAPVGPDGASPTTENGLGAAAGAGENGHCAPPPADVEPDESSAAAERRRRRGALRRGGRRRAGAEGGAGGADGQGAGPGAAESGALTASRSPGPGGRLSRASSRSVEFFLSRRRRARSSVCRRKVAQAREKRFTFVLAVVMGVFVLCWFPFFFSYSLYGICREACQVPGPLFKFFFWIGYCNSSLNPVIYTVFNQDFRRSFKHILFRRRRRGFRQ
Sequence of α2B (P18089 whole entry): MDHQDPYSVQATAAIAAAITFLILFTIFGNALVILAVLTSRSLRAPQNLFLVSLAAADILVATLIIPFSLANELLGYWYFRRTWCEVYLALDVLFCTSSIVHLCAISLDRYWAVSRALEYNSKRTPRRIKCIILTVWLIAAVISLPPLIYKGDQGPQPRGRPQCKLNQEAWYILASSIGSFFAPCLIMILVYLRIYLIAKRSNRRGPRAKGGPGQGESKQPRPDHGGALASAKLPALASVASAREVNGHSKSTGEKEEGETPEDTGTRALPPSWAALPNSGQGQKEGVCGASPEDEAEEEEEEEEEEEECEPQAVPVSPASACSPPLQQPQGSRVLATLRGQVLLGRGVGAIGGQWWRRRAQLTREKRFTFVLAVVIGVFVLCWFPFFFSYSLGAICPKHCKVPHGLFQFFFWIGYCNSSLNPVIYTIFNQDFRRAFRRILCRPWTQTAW
Sequence of 5-HT1D (P28221 whole entry, species assumed): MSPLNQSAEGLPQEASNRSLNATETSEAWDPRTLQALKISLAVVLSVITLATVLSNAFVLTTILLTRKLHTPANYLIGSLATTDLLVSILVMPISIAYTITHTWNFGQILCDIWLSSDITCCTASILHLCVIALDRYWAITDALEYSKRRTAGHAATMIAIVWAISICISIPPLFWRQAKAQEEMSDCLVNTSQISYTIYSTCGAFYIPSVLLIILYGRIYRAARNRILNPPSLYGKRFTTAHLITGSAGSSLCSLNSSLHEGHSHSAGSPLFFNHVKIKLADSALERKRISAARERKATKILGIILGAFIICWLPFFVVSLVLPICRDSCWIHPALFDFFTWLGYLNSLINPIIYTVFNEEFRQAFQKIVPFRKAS
Sequence of H2 (P25021 whole entry): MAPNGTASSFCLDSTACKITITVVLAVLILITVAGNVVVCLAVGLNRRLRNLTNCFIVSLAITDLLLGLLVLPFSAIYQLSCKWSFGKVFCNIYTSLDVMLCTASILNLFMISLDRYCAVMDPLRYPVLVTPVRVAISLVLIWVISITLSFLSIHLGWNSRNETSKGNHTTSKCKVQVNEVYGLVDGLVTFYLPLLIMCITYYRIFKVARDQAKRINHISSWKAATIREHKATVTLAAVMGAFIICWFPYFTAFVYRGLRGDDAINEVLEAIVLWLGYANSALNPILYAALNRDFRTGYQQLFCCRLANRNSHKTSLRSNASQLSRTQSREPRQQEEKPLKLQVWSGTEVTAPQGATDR
Sequence of Sigma1 (Q99720 whole entry): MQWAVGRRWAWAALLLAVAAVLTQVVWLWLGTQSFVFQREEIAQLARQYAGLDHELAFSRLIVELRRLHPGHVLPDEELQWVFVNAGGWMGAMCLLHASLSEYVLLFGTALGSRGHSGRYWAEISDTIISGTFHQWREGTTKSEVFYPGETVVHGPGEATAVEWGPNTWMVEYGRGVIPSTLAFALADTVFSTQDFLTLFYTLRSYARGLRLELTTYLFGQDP
Sequence of 5-HT3 (P46098 24-478, species assumed): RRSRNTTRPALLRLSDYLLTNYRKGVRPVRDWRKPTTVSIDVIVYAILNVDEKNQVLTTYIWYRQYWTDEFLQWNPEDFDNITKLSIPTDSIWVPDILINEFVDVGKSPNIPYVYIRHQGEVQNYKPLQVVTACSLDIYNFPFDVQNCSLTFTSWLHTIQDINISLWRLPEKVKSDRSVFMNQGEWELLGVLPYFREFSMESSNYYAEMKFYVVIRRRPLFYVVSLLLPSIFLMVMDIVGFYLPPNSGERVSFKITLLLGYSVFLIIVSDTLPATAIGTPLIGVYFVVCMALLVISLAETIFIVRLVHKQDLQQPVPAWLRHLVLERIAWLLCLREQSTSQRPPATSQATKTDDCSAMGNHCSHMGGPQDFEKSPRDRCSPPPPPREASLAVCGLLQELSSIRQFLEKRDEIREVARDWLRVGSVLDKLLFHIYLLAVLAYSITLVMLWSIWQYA
Sequence of 5-HT1A (P08908 whole entry, species assumed): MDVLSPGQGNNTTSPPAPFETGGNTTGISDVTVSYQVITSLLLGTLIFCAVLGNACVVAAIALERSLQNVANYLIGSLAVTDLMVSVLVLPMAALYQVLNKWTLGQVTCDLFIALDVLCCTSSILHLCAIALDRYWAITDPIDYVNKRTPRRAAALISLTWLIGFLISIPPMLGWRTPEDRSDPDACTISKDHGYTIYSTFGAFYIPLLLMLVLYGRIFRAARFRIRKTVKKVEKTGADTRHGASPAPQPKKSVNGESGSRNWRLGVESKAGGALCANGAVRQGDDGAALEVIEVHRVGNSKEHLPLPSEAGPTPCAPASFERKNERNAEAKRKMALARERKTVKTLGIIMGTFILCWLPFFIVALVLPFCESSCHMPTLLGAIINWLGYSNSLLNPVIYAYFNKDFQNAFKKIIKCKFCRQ
Sequence of D5 (P21918 whole entry): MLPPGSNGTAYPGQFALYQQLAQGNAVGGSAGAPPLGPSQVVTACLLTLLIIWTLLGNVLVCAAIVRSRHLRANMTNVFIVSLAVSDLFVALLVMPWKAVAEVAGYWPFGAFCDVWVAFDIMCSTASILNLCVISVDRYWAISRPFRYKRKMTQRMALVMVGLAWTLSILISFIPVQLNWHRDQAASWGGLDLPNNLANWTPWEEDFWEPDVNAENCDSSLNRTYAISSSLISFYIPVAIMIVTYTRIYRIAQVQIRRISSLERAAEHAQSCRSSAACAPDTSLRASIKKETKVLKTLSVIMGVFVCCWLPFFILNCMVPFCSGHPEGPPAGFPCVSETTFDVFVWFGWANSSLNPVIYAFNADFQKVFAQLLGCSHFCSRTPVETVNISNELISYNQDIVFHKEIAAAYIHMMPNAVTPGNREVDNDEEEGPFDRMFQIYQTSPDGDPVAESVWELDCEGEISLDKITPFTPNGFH

Structure (SMILES): COc1ccc(N(C)c2nc(C)nc3ccccc23)cc1 [MPC-6827, N-(4-methoxyphenyl)-N,2-dimethylquinazolin-4-amine]
- pKi (H2): 6.81
- pKi (5-HT1E): < 5.00
- pKi (variety of brain targets): < 5.00
- pKi (GABA): < 5.00
- pKi (α2C): < 5.00
- pKi (M): < 5.00
- pKi (BZP): < 5.00
- pKi (5-HT3): < 5.00
- pKi (5-HT2C): < 5.00
- pKi (NMDA): < 5.00
- pKi (Ca++ channel): < 5.00
- pKi (β3): < 5.00
- pKi (α2A): < 5.00
- pKi (Sigma1): 6.37
- pKi (5-HT1A): < 5.00
- pKi (CB2): < 5.00
- pKi (AMPA): < 5.00
- pKi (D4): < 5.00
- pKi (β1): < 5.00
- pKi (α1A-1C): < 5.00
- pKi (D1, D2): < 5.00
- pKi (VMAT): < 5.00
- pKi (Adenosine): < 5.00
- binding to a panel / variety of kinases (panel of kinases): did not show binding
- pKi (I): < 5.00
- pKi (5-HT7): < 5.00
- pKi (PKC): < 5.00
- competition at microtubule binding sites (microtubules (MTs)): compete with paclitaxel and colchicine, but not with vinblastine
- pKi (5-HT1B): < 5.00
- pKi (mGluR): < 5.00
- pKi (V1-2): < 5.00
- pKi (β2): < 5.00
- pKi (α2B): < 5.00
- pKi (KA): < 5.00
- pKi (NK): < 5.00
- pKi (D5): < 5.00
- pKi (H3, H4): < 5.00
- pKi (Na+ Channel): < 5.00
- pKi (EP): < 5.00
- pKi (D3): < 5.00
- pKi (CB1): < 5.00
- pKi (5-HT2A): < 5.00
- pKi (5-HT1D): < 5.00
- pKi (MOR): 5.19
- pKi (5-HT2B): < 5.00
- pKi (NT): < 5.00

Structure (SMILES): COc1ccc(N(C)c2nc(C)nc3ccccc23)cc1 [[^11C]MPC-6827]
- BBB penetration and brain retention (brain MT [1]; biodistribution, white male mice): penetrated the BBB and was retained in the brain
- specific binding in brain (brain MT [1]; mice, 30 minutes, blocking with 5 mg/kg MPC-6827): 70%
- brain SUV (brain MT [1]; mice, compared with established PET tracers): higher than that of the established brain PET/periphery PET tracers
- stable in 5% ethanol-saline formulation [2]: 4 h
- BBB penetration and retention in brain (rat brain): BBB penetration and excellent retention
- uptake and specific binding [3]: excellent uptake and specific binding
- uptake and specific binding (glioblastoma PDX cells): excellent uptake and specific binding
- binding site on microtubules (MDA-MB-231 cells): binds to taxane and colchicine binding sites of microtubules
- incubation time to equilibrium binding (MDA-MB-231 cells): 60 min
- specific binding (MDA-MB-231 cells; with 5 μM MPC-6827): 95%
- specific binding (MDA-MB-231 cells; with 5 μM MTA HD-800): 95%
- specific binding (MDA-MB-231 cells; with 5 μM colchicine): 65%
- specific binding (MDA-MB-231 cells; with 5 μM docetaxel): 88%
- specific binding (MDA-MB-231 cells; with 5 μM paclitaxel): 78%
- lower binding of radiotracer in the whole brain vs wild type controls [4]: 40%
- logP [5]: 3.8
- lower binding (brain activity) vs control mice [6]: ~35%
- uptake and specific binding [7]: excellent uptake and specific binding
- brain uptake / BBB penetration (brain MT [8]; microPET, nude mice, baseline): excellent brain uptake; also recorded: penetrates the blood brain barrier (BBB) with excellent retention
- blocking of brain uptake (brain MT [8]; pre-administration of 5 mg/kg MPC-6827 and 5 mg/kg HD-800 (i.v.)): substantially blocked
